# From the supplement of paper PMC10307832
# Experiments:
# Test in all cases: relative viability (nuclei count vs DMSO), 5 days (fraction); higher = more cells survive
# kb NB 142-70 = compound: C1CSC2=C(C(=O)N1)SC3=C2C=C(C=C3)O [kb NB 142-70]
# In short: (§1)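 Viability was read as treated-well nuclei divided by vehicle-well nuclei, using the median across plates. Lung cancer cell lines in 1536-well plates were kept overnight at 37 °C, pinned with five √10-spaced library-drug doses, and after 5 days were Hoechst-stained, imaged at 4× and counted in MetaXpress. Plates passed only with control CV below 25% and at least one doubling.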
# [1] = compound: NCC(=O)Nc1ccc(-n2nc(C(F)(F)F)cc2-c2ccc3c(ccc4ccccc43)c2)cc1
# In short: as §1
# kb NB 142-70 + OSI-027 = compound: C1CSC2=C(C(=O)N1)SC3=C2C=C(C=C3)O [kb NB 142-70] + COc1cccc2cc(-c3nc([C@H]4CC[C@H](C(=O)O)CC4)n4ncnc(N)c34)[nH]c12 [OSI-027] (partner 0.5 µM)
# In short: (§2)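 Lung cancer cell lines, seeded in 1536-well plates, were treated the following day by pin tool with a single drug or with five library-drug doses (not always all listed) in √10 steps on top of a fixed anchor-drug dose. Cells were fixed and nuclei stained in one step after 5 days, and nuclei were counted. Relative viability is the nuclei count for treated wells divided by that for vehicle wells, reported as medians of duplicate plates.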
# [2] = compound: NCC(=O)Nc1ccc(-n2nc(C(F)(F)F)cc2-c2ccc3c(ccc4ccccc43)c2)cc1 + Nc1nc2[nH]cc(CCc3ccc(C(=O)N[C@@H](CCC(=O)O)C(=O)O)cc3)c2c(=O)[nH]1 [Pemetrexed] (partner 0.2 µM)
# In short: as §2
Cell Line,relative viability (kb NB 142-70; 0.1 µM),relative viability (kb NB 142-70; 1 µM),relative viability (kb NB 142-70; 3.162 µM),relative viability ([1]; 0.02 µM),relative viability ([1]; 0.06325 µM),relative viability ([1]; 0.2 µM),relative viability ([1]; 0.6325 µM),relative viability ([1]; 2 µM),relative viability (kb NB 142-70 + OSI-027; first compound 0.1 µM),relative viability (kb NB 142-70 + OSI-027; first compound 1 µM),relative viability (kb NB 142-70 + OSI-027; first compound 3.162 µM),relative viability ([2]; first compound 0.02 µM),relative viability ([2]; first compound 0.06325 µM),relative viability ([2]; first compound 0.2 µM),relative viability ([2]; first compound 0.6325 µM),relative viability ([2]; first compound 2 µM)
NCI-H650,1.02,0.906,0.825,0.866,0.977,0.981,0.866,1.02,0.535,0.519,0.52,0.907,0.9,0.896,0.872,0.913
NCI-H661,0.969,0.934,0.919,1.03,0.96,0.973,0.963,1.02,0.723,0.717,0.61,0.882,0.954,0.929,0.915,0.907
NCI-H838,0.965,0.961,0.963,0.958,0.998,1,0.909,0.864,0.369,0.386,0.331,0.259,0.25,0.253,0.232,0.284
NCI-H1355,1.02,0.885,1.01,0.971,1.07,0.883,1.02,0.995,0.44,0.38,0.378,1.06,1.09,1.07,0.963,1.02
NCI-H1395,1.01,0.963,0.601,0.941,0.983,0.755,0.858,1,0.674,0.757,0.638,0.876,0.896,0.969,0.8,0.894
NCI-H1437,0.986,1,0.975,0.975,1.05,0.957,1.01,0.946,0.908,0.968,0.921,0.309,0.335,0.35,0.316,0.308
NCI-H1563,1.04,1.02,1,0.992,0.954,0.997,1.02,0.968,0.773,0.739,0.752,0.801,0.81,0.702,0.722,0.737
NCI-H1648,0.789,0.925,0.748,0.751,0.939,0.9,0.989,1.11,0.253,0.217,0.237,0.625,0.636,0.647,0.706,0.687
NCI-H1650,0.988,1.02,0.849,0.913,0.995,0.847,0.971,1.09,0.612,0.755,0.483,0.399,0.423,0.331,0.485,0.38
NCI-H1651,1.02,0.975,0.821,1,0.947,0.978,0.956,0.998,0.725,0.657,0.471,0.588,0.34,0.577,0.603,0.608
NCI-H1666,0.951,1.01,0.922,1.05,0.986,1.01,0.961,0.987,0.786,0.875,0.875,0.947,0.881,0.87,0.851,0.878
NCI-H1734,1.04,0.774,0.517,0.931,1.06,0.955,0.966,0.928,0.584,0.509,0.396,0.406,0.457,0.442,0.442,0.384
NCI-H1755,0.988,0.986,1.02,1.01,1.03,1.04,0.966,0.986,0.741,0.722,0.737,0.69,0.509,0.453,0.394,0.434
NCI-H1792,0.928,0.937,0.915,1.05,0.812,0.875,0.95,0.911,0.705,0.684,0.912,0.943,1.07,0.802,0.943,0.872
NCI-H1793,0.911,1.11,0.863,0.984,1.08,0.86,0.915,1.08,0.34,0.311,0.294,0.907,1.01,0.827,0.949,0.891
NCI-H1915,1.04,0.978,0.742,0.86,1.02,0.978,0.963,0.989,0.648,0.619,0.396,0.452,0.503,0.477,0.575,0.467
NCI-H1944,1.08,0.978,1.07,0.822,0.973,0.966,0.965,0.899,0.386,0.443,0.426,0.609,0.731,0.642,0.553,0.575
NCI-H1975,0.902,0.982,0.656,0.91,0.887,1.03,0.972,1.03,0.808,0.741,0.597,0.309,0.293,0.291,0.282,0.278
NCI-H1993,1.03,0.857,0.716,0.934,1.1,1.05,1,1.04,0.51,0.578,0.479,0.579,0.504,0.59,0.628,0.599

Cell Line,relative viability (kb NB 142-70; 0.1 µM),relative viability (kb NB 142-70; 1 µM),relative viability (kb NB 142-70; 3.162 µM),relative viability ([1]; 0.02 µM),relative viability ([1]; 0.06325 µM),relative viability ([1]; 0.2 µM),relative viability ([1]; 0.6325 µM),relative viability ([1]; 2 µM),relative viability (kb NB 142-70 + OSI-027; first compound 0.1 µM),relative viability (kb NB 142-70 + OSI-027; first compound 1 µM),relative viability (kb NB 142-70 + OSI-027; first compound 3.162 µM),relative viability ([2]; first compound 0.02 µM),relative viability ([2]; first compound 0.06325 µM),relative viability ([2]; first compound 0.2 µM),relative viability ([2]; first compound 0.6325 µM),relative viability ([2]; first compound 2 µM)
NCI-H2009,1.06,1.07,0.788,0.952,1.02,1.07,1,1.05,0.678,0.68,0.395,1.03,1.01,1.08,1.05,1.04
NCI-H2023,1.07,0.946,0.642,0.952,1.06,0.957,1.06,0.922,0.485,0.417,0.258,0.226,0.249,0.256,0.224,0.239
NCI-H2085,0.964,0.952,0.712,0.961,1.01,1.03,0.982,1.01,0.878,0.876,0.388,0.831,0.967,0.92,0.892,1.01
NCI-H2087,1.04,1.29,0.951,0.978,1.09,1.1,1.08,1.02,0.532,0.677,0.35,0.619,0.685,0.681,0.639,0.718
NCI-H2126,0.985,0.974,0.989,0.981,1.04,1.04,0.993,0.997,0.791,0.629,0.674,0.667,0.714,0.736,0.724,0.69
NCI-H2170,0.965,1.02,0.825,0.985,0.974,0.967,0.949,0.997,0.699,0.694,0.588,0.251,0.262,0.239,0.265,0.269
NCI-H2228,1.04,1.33,0.699,1,1.04,1.1,1.03,0.797,0.575,0.483,0.317,0.375,0.354,0.377,0.358,0.398
NCI-H2342,0.897,0.972,0.912,0.93,1.01,0.988,0.986,0.911,0.649,0.612,0.638,0.796,0.757,0.764,0.762,0.812
NCI-H2347,1.05,1.02,0.949,0.99,1.06,1.16,1.11,1.07,0.461,0.416,0.384,0.403,0.421,0.409,0.432,0.496
NCI-H2405,0.985,0.995,0.7,1,1.02,1.09,0.961,1.06,0.652,0.615,0.546,1.04,1.04,1.26,1.04,1.16
NCI-H3122,0.962,0.982,0.969,1.01,1.02,1.01,1.01,1,0.922,0.919,0.726,0.194,0.208,0.204,0.187,0.241
PC-3 [JPC-3],1,1.07,1.05,0.996,1.08,1.01,1.02,1.14,0.763,0.835,0.737,1.2,1.24,1.08,1.2,1.18
PC-14,0.958,0.973,0.954,1.05,1.06,0.954,0.964,1.02,0.754,0.962,0.609,0.131,0.136,–,0.131,0.113
RERF-LC-KJ,0.988,1.04,0.921,1.05,1.01,0.993,1.01,1,0.566,0.643,0.593,0.493,0.402,0.462,0.447,0.466
SK-LU-1,0.994,0.982,0.664,0.949,1.1,1.2,1.01,1.07,0.355,0.305,0.219,0.992,0.956,1.11,0.902,0.989
SK-MES-1,1.01,1.13,0.734,1.04,1.01,1.06,1.01,1.03,0.653,0.676,0.27,0.911,0.919,1.05,0.85,1.08
SW 900,0.864,1.02,0.744,0.717,0.941,0.856,0.784,0.814,0.552,0.478,0.295,0.501,0.495,0.453,0.508,0.495
SW 1573,1.02,0.84,0.535,0.94,1.01,1.03,0.971,0.877,0.618,0.47,0.266,0.847,0.805,0.81,0.796,0.75
